Reference: patent US20220187282A1, “CARDIOMYOCYTE PROLIFERATION” (The Council of the Queensland Institute of Medical Research, priority 2019, published 2022)
Read-outs that look alike come from different tables or passages of the source.

Assays:
kinases [1] = target: kinases (Homo sapiens, UniProt Q8N568); format: biochemical; conditions: DCAMKL2 (DCK2) FRET-Z-Lyte SP; Test Conc(μM):ATP Conc(μM) 1:150
kinases [2] = target: kinases (Homo sapiens, UniProt P00519); format: biochemical; conditions: ABL1 Hu Phos FRET-Z-Lyte SP; Test Conc(μM):ATP Conc(μM) 1:10
kinases (Homo sapiens, UniProt P00519), sequence (P00519 whole entry): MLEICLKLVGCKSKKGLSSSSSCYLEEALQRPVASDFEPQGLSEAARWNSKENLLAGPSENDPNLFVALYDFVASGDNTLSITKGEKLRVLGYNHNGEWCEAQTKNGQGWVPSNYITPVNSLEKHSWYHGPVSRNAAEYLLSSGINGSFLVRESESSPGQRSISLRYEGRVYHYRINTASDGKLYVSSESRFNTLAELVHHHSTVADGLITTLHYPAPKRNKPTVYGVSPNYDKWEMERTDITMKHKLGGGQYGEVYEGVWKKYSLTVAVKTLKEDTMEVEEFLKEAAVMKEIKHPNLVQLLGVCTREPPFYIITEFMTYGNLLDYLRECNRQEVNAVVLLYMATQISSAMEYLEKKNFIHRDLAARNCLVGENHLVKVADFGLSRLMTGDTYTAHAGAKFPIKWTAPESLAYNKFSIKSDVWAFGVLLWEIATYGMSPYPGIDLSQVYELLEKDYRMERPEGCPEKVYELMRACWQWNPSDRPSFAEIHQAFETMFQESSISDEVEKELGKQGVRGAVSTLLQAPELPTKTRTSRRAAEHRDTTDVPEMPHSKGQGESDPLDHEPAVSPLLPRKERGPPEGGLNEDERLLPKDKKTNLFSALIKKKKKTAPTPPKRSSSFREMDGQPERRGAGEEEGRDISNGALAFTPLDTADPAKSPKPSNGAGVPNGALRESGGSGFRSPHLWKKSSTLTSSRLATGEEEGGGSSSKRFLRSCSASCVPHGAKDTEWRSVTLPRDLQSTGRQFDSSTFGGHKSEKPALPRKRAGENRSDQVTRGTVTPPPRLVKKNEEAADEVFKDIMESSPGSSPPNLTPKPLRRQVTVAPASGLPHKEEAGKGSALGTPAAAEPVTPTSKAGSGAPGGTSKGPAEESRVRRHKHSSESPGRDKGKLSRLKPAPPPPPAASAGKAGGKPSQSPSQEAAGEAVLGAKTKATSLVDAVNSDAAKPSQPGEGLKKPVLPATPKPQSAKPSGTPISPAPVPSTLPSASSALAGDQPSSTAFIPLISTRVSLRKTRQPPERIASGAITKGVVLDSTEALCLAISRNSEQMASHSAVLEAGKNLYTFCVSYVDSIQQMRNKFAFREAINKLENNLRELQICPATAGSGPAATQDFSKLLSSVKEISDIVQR

kinases [3] = target: kinases (Homo sapiens, UniProt Q9UM73); format: biochemical; conditions: ALK FRET-Z-Lyte SP; Test Conc(μM):ATP Conc(μM) 1:25
kinases [4] = target: kinases (Homo sapiens, UniProt Q99683); format: biochemical; conditions: MAP3K5 (ASK1) FRET-Lantha SP; Test Conc(μM) 1
kinases (Homo sapiens, UniProt Q99683), sequence (Q99683 whole entry): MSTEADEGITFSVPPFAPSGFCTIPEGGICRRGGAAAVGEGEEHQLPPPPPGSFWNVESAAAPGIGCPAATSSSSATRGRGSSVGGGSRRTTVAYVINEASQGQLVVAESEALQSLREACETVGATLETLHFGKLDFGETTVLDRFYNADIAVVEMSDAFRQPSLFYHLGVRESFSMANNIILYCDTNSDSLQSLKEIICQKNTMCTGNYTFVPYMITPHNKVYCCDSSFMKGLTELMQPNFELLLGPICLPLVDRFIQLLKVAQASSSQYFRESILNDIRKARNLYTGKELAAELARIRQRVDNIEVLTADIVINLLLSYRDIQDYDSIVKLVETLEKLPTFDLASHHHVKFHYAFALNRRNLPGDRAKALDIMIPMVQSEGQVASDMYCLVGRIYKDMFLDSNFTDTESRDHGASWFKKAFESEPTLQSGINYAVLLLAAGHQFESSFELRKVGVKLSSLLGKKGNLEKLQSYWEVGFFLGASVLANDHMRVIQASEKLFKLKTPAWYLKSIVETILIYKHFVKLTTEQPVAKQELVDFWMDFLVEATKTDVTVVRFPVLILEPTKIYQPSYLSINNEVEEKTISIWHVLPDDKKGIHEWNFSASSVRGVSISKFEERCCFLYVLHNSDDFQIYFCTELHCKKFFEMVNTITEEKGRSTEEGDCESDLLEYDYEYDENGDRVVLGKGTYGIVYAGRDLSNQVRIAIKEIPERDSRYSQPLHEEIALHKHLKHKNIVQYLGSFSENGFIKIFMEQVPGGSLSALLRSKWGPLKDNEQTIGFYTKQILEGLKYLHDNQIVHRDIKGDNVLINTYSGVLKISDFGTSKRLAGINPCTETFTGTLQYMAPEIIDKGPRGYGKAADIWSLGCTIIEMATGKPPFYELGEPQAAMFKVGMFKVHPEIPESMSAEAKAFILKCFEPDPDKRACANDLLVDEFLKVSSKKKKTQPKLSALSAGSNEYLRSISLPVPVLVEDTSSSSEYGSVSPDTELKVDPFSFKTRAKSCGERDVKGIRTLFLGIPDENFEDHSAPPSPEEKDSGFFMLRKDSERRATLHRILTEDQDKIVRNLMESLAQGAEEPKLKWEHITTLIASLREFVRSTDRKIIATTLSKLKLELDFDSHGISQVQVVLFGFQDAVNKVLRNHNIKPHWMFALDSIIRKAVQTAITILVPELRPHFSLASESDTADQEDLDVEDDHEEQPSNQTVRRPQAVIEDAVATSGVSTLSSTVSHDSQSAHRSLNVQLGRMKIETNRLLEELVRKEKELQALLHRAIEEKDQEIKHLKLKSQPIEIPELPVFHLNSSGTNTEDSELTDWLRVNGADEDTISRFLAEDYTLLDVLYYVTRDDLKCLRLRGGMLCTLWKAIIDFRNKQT

kinases [5] = target: kinases (Homo sapiens, UniProt P07332); format: biochemical; conditions: FES (FPS) FRET-Z-Lyte SP; Test Conc(μM):ATP Conc(μM) 1:25
kinases (Homo sapiens, UniProt P07332), sequence (P07332 whole entry): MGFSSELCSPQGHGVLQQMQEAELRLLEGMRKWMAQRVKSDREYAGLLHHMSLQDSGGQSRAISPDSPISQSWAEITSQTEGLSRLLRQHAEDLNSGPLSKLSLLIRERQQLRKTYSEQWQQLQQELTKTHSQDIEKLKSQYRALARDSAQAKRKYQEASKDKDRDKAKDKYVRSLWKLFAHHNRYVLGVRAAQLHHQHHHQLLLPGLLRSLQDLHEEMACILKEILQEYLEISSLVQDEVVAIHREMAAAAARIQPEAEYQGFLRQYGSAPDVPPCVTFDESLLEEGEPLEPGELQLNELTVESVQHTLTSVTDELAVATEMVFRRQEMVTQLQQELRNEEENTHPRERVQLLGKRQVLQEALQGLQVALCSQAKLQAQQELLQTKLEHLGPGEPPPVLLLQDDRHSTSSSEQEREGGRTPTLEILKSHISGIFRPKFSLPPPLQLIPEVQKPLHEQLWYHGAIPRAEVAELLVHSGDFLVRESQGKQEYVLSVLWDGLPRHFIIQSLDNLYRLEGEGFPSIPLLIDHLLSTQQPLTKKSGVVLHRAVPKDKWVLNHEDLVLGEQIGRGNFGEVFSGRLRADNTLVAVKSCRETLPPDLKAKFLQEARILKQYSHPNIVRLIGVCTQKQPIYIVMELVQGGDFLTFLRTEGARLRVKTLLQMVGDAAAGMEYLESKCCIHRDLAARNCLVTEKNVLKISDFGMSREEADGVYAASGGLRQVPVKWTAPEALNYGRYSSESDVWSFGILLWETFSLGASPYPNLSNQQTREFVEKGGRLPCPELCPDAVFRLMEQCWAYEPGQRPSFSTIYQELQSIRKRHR

kinases [6] = target: kinases (Homo sapiens, UniProt O43293); format: biochemical; conditions: DAPK3 (ZIPK) FRET-Z-Lyte SP; Test Conc(μM):ATP Conc(μM) 1:5
kinases (Homo sapiens, UniProt O43293), sequence (O43293 whole entry): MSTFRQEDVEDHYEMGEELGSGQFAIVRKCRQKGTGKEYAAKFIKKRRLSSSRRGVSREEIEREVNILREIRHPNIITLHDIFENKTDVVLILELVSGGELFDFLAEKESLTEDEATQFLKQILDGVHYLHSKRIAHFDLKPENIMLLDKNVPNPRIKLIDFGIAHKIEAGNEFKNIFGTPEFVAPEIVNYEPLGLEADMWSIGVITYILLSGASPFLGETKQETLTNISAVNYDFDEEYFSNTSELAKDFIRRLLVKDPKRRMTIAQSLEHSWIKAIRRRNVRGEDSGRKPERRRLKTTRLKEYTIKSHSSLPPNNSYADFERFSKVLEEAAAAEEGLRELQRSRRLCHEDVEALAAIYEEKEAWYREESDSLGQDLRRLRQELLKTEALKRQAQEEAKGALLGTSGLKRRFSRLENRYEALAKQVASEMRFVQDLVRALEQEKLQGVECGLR

kinases [7] = target: kinases (Homo sapiens, UniProt P22607); format: biochemical; conditions: FGFR3 *Mn* FRET-Z-Lyte SP; Test Conc(μM):ATP Conc(μM) 1:75
kinases [8] = target: kinases (Homo sapiens, UniProt Q9UBS0); format: biochemical; conditions: RPS6KB2 FRET-Z-Lyte SP; Test Conc(μM):ATP Conc(μM) 1:50
kinases (Homo sapiens, UniProt Q9UBS0), sequence (Q9UBS0 whole entry): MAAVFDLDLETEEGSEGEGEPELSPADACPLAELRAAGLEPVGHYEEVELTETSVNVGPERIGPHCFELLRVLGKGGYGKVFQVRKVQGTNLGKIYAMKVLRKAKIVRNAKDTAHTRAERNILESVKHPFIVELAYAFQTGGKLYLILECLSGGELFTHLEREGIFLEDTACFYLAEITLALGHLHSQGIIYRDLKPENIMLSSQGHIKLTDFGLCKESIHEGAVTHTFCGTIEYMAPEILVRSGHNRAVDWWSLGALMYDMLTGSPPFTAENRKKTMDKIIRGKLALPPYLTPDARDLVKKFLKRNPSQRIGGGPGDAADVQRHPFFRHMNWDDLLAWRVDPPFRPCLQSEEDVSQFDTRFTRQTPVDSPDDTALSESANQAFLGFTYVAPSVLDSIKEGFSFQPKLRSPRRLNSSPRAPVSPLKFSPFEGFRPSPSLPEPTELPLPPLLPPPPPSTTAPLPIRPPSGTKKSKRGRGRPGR

kinases [9] = target: T1, kinases (Homo sapiens, UniProt P52564); format: biochemical
T1 sequence (P52564 1-334): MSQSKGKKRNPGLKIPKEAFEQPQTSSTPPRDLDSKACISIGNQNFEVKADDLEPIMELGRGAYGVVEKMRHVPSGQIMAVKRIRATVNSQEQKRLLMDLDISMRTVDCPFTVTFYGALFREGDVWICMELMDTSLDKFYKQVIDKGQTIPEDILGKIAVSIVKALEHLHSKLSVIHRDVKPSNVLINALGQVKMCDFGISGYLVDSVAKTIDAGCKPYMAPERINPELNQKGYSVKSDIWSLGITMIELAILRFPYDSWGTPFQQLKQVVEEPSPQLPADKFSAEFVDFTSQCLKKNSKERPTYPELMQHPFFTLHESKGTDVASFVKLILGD

kinases [10] = target: kinases (Homo sapiens, UniProt P49761); format: biochemical; conditions: CLK3 FRET-Z-Lyte SP; Test Conc(μM):ATP Conc(μM) 1:150
kinases (Homo sapiens, UniProt P49761), sequence (P49761 whole entry): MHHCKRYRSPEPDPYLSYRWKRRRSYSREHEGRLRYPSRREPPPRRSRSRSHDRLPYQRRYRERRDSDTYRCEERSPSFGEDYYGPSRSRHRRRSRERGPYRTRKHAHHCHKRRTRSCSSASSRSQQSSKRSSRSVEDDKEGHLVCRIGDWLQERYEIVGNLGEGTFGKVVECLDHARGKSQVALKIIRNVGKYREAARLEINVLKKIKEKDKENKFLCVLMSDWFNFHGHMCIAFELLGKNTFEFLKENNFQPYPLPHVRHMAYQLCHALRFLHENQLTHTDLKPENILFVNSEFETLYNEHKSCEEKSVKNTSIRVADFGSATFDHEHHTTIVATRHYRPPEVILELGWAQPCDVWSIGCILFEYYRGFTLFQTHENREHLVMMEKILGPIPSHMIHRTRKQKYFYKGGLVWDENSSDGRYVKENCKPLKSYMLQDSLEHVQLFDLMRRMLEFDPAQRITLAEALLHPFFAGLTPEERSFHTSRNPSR

kinases [11] = target: kinases (Homo sapiens, UniProt O14965); format: biochemical; conditions: AURKA (Aurora A) Z-Lyte SP; Test Conc(μM):ATP Conc(μM) 1:10
[12] = system: adult cardiomyocytes (MLC2v); test: adult mouse intracardiac injection, BrdU+ cardiomyocytes after fix-dissociation; format: in vivo; conditions: adult mice; for cardiomyocyte DNA synthesis (BrdU+): single dose 10 mg/kg injected into the heart, 3 days
Method: 8-week-old male mice were anesthetized with 4% isoflurane (Bayer) with 0.25 L/min oxygen and then maintained with 2% isoflurane. Once, anaesthetised, each mouse received a s.c. buprenorphine injection (0.05 mg/kg). The animals were intubated and ventilated (Minivent, Harvard Apparatus) (tidal volume=250 respiration rate=133 strokes/min). To access the heart, a lateral thoracotomy was performed at the 4th intercostal space. A Hamilton syringe with a 30-gauge needle was used to inject ˜20 ? l of small molecule solution (final concentration 10 mg/kg) into the myocardium. All compounds were emulsified in Kolliphor/PBS solution (20% Kolliphor® HS 15 (w/v) in PBS, pH 7.4) at a concentration of 20 mg/mL. The chest wall was closed using 4-0 silk suture, the skin closed with 6-0 prolene suture and the mouse removed from anaesthesia. Following anaesthesia, mice were supplied with a s.c. injection of buprenorphine (0.05 mg/kg) and carprofen (10 mg/kg) and allowed to recover. Starting from the day of the surgery, mice received daily 5-bromo-2′-deoxyuridine (BrdU) injections (100 mg/kg, i.p.). […]
Cardiomyocytes were the counted, cytospun onto glass slides and stained with BrdU and MLC2v antibodies, relevant secondary antibodies (see Star Methods Table) and Hoechst (1:1000) to quantify proliferating cardiomyocytes. The AlexaFluor 647 was used to stain BrDU to avoid false positive associated with auto-fluorescence inherent in adult cardiomyocytes in blue-green-yellow channels. To quantify proliferation, 5,000 cardiomyocytes per heart were imaged using a Nikon Spinning Disc confocal microscope using a 20× objective.
Finally, we sought to determine whether compounds 3 and 65 could regulate adult cardiomyocyte proliferation in vivo and whether the mevalonate pathway is critical for these effects. […] Following injection, proliferation was assessed using BrdU pulse-chase for 3 days, followed by fix-dissociation of the hearts, enabling preservation and separation of cardiomyocytes (FIG. 7F) and accurate quantification of BrdU positive cardiomyocytes (FIG. 7G). […]

[13] = MAP2K6 (MKK6) FRET-Lantha SP, Test Conc(μM) 1
[14] = MAP2K6 (MKK6)Cascade Z-Lyte SP, Test Conc(μM):ATP Conc(μM) 1:100

Structure (SMILES)	Mean Inhib (%) (kinases [1])	Mean Inhib (%) (kinases [2])	Mean Inhib (%) (kinases [3])	Mean Inhib (%) (kinases [4])	Mean Inhib (%) (kinases [5])	Mean Inhib (%) (kinases [6])	Mean Inhib (%) (kinases [7])	Mean Inhib (%) (kinases [8])	Mean Inhib (%) (kinases [9]; [13])	Mean Inhib (%) (kinases [9]; [14])	Mean Inhib (%) (kinases [10])	Mean Inhib (%) (kinases [11])	DNA synthesis response with simvastatin ([12]; 10 mg/kg intracardiac plus simvastatin 20 mg/kg s.c. daily)	cardiomyocyte DNA synthesis (BrdU+) [12]
Cc1ccc(NC(=O)c2ccnc(N3CCOCC3)c2)cc1Nc1ccnc(N2CC(C)OC(C)C2)n1 (stereo not drawn) [compound 3]	5.5%	2.8%	11.9%	0.2%	10.0%	3.3%	−2.6%	7.8%	−4.9%	21.3%	2.0%	−2.7%	blocked	significantly increased
Cc1cc(Oc2ccnc(Nc3ccc(S(N)(=O)=O)cc3)c2)c(-c2ccccn2)nc1C [compound 65]	4.9%	85.2%	4.2%	6.1%	6.3%	−11.8%	7.7%	2.1%	2.3%	−5.7%	5.1%	7.2%		significantly increased
